Results: patent US20150258059A1, “ANTIMICROBIAL AND RADIOPROTECTIVE COMPOUNDS” (BioDiem, Ltd, priority 2001, published 2015)
In brackets after ≈: the same amount, converted by molar mass. Like-named read-outs stand apart in the source and are kept apart here. Marks after values point to notes of the source that are not given here.

Tests used:
Corynebacterium B-670 = assay: Agar diffusion assay; assay type: cell-based
Epidermophyton floccosum = assay: M38-P microdilution MIC/MFC; assay type: cell-based; details: Table 16, Dermatophytes
[1] = system: Enterobacter aerogenes B-687; assay: Sensitivity of strains: suppression of growth; assay type: cell-based; details: Compound (1) 1.0%; antibiotics disc method
Proteus mirabilis = assay: NCCLS broth microdilution MIC/MBC; assay type: cell-based; details: for MIC: Proteus mirabilis
[2] = system: γ-hemolytic streptococcus B-672; assay: Sensitivity of strains: suppression of growth; assay type: cell-based; details: Compound (1) 1.0%; antibiotics disc method
[3] = system: S. aureus-clinical isolate 1; assay: microbe, parasite or virus in culture; assay type: cell-based
Excerpt: NCCLS-USA Standard Method—Broth microdilution (or macrodilution) (Mueller-Hinton).
Inoculum 1-4×10^4 cfu (or −4×10^5 cfu). Ciprofloxacin test control. Chlorhexidine values added for disinfectant and antiseptic activity comparison.

physchem = details: aqueous with cosolvent or surfactant or cyclodextrin
Rhizopus stolonifer = assay: microbe, parasite or virus in culture; assay type: cell-based; details: for MIC: Rhizopus stolonifer
[4] = Blood levels after single-dose oral administration, UV spectroscopy; assay type: in vivo, Sprague-Dawley rats; details: for concentration at 4 h / concentration at 8 h: Sprague-Dawley, rat, serum, oral, read-out: Blood Level of Compound (1), Mean
Description: The aim of this example was to establish absorption and blood levels of Compound (1) in the rat after a single-dose, oral administration.
Sprague-Dawley rats (6 w/o, delivered 30 Jan, 2001) were acclimatized for 6 days in the Animal Facility under standardized environmental conditions (22° C. ±3° C., rel hum 30-70%, artificial light, 12 hrs light/12 hrs dark). Rats were fed a conventional laboratory diet with food and water ad lib and caged 5 rats per cage.
Compound (1) was prepared as an aqueous suspension in sterile LPW. At higher concentrations the suspension was sonicated to reduce particle size sufficiently to pass through the gavage needle.
Compound (1) suspensions and the water control were administered at approx […], in a single. One control and five treatment rats were weighed immediately before each dose administration, the dose volume calculated and the dose delivered by gavage (22 gauge stainless steel, smooth-balled end attached to a syringe).
Approximately 100-200 μL of blood (microfuge tube) was removed from the tail at 4 and 8 hours. Tails were prewarmed using a heat lamp and snipped at the tip with a large scalpel. Blood was massaged into a microfuge tube. Twenty four hour blood samples were not attempted because of the difficulty of snipping scarred tails and the distress caused to rats.
Blood was allowed to clot, centrifuged in a microfuge for 3 minutes (speed 14) and the serum separated and stored at −20° C.
Samples for treatment groups and for controls were thus pooled and a mean level of Compound (1) for each treatment group determined.
Compound (1) was extracted (x2) from serum by toluene and absorbance measured at 370 nm (Hitachi U2000). A spiked control using 100 μg/mL Compound (1) in 50% methanol/water (V/V) and untreated controls were also assayed.

[5] = system: Pseudomonas aeruginosa ATCC 27853; assay: NCCLS broth microdilution MIC/MBC; assay type: cell-based; details: for MIC: Pseudomonas aeruginosa, ATCC27853, read-out: MIC
[6] = system: Escherichia coli ATCC 25922; assay: NCCLS broth microdilution MIC/MBC; assay type: cell-based; details: for MIC: Escherichia coli, ATCC25922, read-out: MIC
Acinetobacter B-681 [7] = assay: Agar diffusion assay
Acinetobacter B-681 [8] = assay: Sensitivity of strains: suppression of growth; assay type: cell-based; details: Compound (1) 1.0%; antibiotics disc method
[9] = system: Staphylococcus aureus B-674; assay: Sensitivity of strains: suppression of growth; assay type: cell-based; details: Compound (1) 1.0%; antibiotics disc method
[10] = system: Neisseria meningitidis M-A72; assay: Sensitivity of strains: suppression of growth; assay type: cell-based; details: Compound (1) 1.0%; antibiotics disc method
[11] = system: Salmonella intraperitoneally; assay: Anti-bacterial activity in vivo, infected mice; details: schedule −1, 0, +1, +2, +3; 200 mg/kg intrmuscularly
Candida albicans = assay: NCCLS broth macro-dilution MIC/MFC (RPMI); assay type: cell-based; details: Table 10, 4 day, 30° C.
Fusarium graminearum = assay: microbe, parasite or virus in culture; assay type: cell-based
Streptococcus pyogenes = assay: MIC in increasing concentrations of plasma; assay type: cell-based
Excerpt: (§1) […]. Serum binding is significant in drug distribution and bioavailability.
(§2) […]. Bactericidal activity is much more affected than inhibitory activity.

S. aureus = assay: MIC in increasing concentrations of plasma; assay type: cell-based; details: Staphylococcus aureus
Excerpt: as §1, §2

SMILES: C/C(=C\c1ccc2c(c1)OCO2)[N+](=O)[O-] [Compound (1)]
- Diameter of zone of Growth inhibition (Corynebacterium B-670; Concentration in disc 0.1%): 31# mm
- Diameter of zone of Growth inhibition (Corynebacterium B-670; Concentration in disc 1.0%): 35# mm
- Diameter of zone of Growth inhibition (Corynebacterium B-670; Concentration in disc 2.0%): 40# mm
- MIC (Epidermophyton floccosum; Epidermophyton floccosum): 0.5 µg/mL (≈ 2.41 µM)
- MMC (Epidermophyton floccosum): 16 µg/mL
- Suppression of Growth (+/−) [1]: +
- MIC (Proteus mirabilis): 256 µg/mL (≈ 1240 µM)
- MIC (Proteus mirabilis; 24 h): 256 µg/mL (≈ 1240 µM)
- MMC (Proteus mirabilis; Table 9, 35° C., 24 hours): >512 µg/mL
- MMC (Proteus mirabilis; Table 17, 2 or 3 replicates): >512 µg/mL
- Suppression of Growth (+/−) [2]: +
- MIC ([3]; Staphylococcus aureus, 24 h): 16 µg/mL (≈ 77.2 µM)
- MMC ([3]; Table 9, 35° C., 24 hours): 16 µg/mL
- MMC ([3]; Table 17, 2 or 3 replicates): 16 µg/mL
- solubility (physchem): 1000 µg/mL (≈ 4830 µM)
- MIC (Rhizopus stolonifer; Table 20, […], after 12 weeks continuous exposure, read-out: MIC Final): 16 µg/mL (≈ 77.2 µM)
- MIC (Rhizopus stolonifer; Table 20, […], parent strain, read-out: MIC Initial): 4 µg/mL (≈ 19.3 µM)
- MIC (Rhizopus stolonifer; before exposure, MHB, read-out: Standard MIC Initial): 4 µg/mL (≈ 19.3 µM)
- 7-Day MIC Range (Rhizopus stolonifer; to Wk 5): 4-32 to Wk 5 μg/mL
- Blood Level of Compound (1), Mean ([4]; 1250 mg/kg, 4 + 8 h): 27000 ng/mL
- concentration at 4 h ([4]; 500 mg/kg, 500 mg/kg fasted): 12000 ng/mL
- concentration at 8 h ([4]; 500 mg/kg, 500 mg/kg fasted): 14000 ng/mL
- concentration at 4 h ([4]; 500 mg/kg, 500 mg/kg fed): 8000 ng/mL
- concentration at 8 h ([4]; 500 mg/kg, 500 mg/kg fed): 17000 ng/mL
- concentration at 4 h ([4]; 1000 mg/kg, 1000 mg/kg fasted): 26000 ng/mL
- concentration at 8 h ([4]; 1000 mg/kg, 1000 mg/kg fasted): 21000 ng/mL
- oral dose reaching the blood ([4]; absorption from the gastrointestinal tract): approximately 2%
- pH (in 50% v./v. ethanol): approximately neutral
- MIC ([5]; Table 9, 35° C., 24 hours): > 512 µg/mL
- MIC ([5]; Table 17, 2 or 3 replicates): > 512 µg/mL
- MMC ([5]; Table 9, 35° C., 24 hours): >512 µg/mL
- MMC ([5]; Table 17, 2 or 3 replicates): >512 µg/mL
- MIC ([6]; Table 9, 35° C., 24 hours): > 512 µg/mL
- MIC ([6]; Table 17, 2 or 3 replicates): > 512 µg/mL
- MMC ([6]; Table 9, 35° C., 24 hours): >512 µg/mL
- MMC ([6]; Table 17, 2 or 3 replicates): >512 µg/mL
- Diameter of zone of Growth inhibition (Acinetobacter B-681 [7]; Concentration in disc 0.1%): 32# mm
- Diameter of zone of Growth inhibition (Acinetobacter B-681 [7]; Concentration in disc 1.0%): 35# mm
- Diameter of zone of Growth inhibition (Acinetobacter B-681 [7]; Concentration in disc 2.0%): 38# mm
- Suppression of Growth (+/−) (Acinetobacter B-681 [8]): +
- Suppression of Growth (+/−) [9]: +
- Suppression of Growth (+/−) [10]: +
- Cumulative mortality (test) [11]: 47
- Incubation period days (test) [11]: 0 days
- MIC (Candida albicans; Candida albicans, 96 h): 8 µg/mL (≈ 38.6 µM)
- MMC (Candida albicans): 8 µg/mL
- MIC (Fusarium graminearum; Fusarium graminearum, 168 h): 4 µg/mL (≈ 19.3 µM)
- MMC (Fusarium graminearum; Table 10, 7 day, 30° C.): 8 µg/mL
- MIC (Streptococcus pyogenes): 256 µg/mL (≈ 1240 µM)
- MIC (Streptococcus pyogenes; 0% plasma in MHB, read-out: MIC): 4 µg/mL (≈ 19.3 µM)
- MIC (Streptococcus pyogenes; 1% plasma in MHB, read-out: MIC): 4 µg/mL (≈ 19.3 µM)
- MIC (Streptococcus pyogenes; 2.5% plasma in MHB, read-out: MIC): 8 µg/mL (≈ 38.6 µM)
- MIC (Streptococcus pyogenes; 5% plasma in MHB, read-out: MIC): 8 µg/mL (≈ 38.6 µM)
- MIC (Streptococcus pyogenes; 10% plasma in MHB, read-out: MIC): 16 µg/mL (≈ 77.2 µM)
- MIC (Streptococcus pyogenes; 20% plasma in MHB, read-out: MIC): 32 µg/mL (≈ 154 µM)
- MIC (Streptococcus pyogenes; 50% plasma in MHB, read-out: MIC): 64 µg/mL (≈ 309 µM)
- MIC (S. aureus; 0% plasma in MHB): 4 µg/mL (≈ 19.3 µM)
- MIC (S. aureus; 1% plasma in MHB): 4 µg/mL (≈ 19.3 µM)
- MIC (S. aureus; 2.5% plasma in MHB): 8 µg/mL (≈ 38.6 µM)
- MIC (S. aureus; 5% plasma in MHB): 8 µg/mL (≈ 38.6 µM)
- MIC (S. aureus; 10% plasma in MHB): 16 µg/mL (≈ 77.2 µM)
- MIC (S. aureus; 20% plasma in MHB): 32 µg/mL (≈ 154 µM)
- MIC (S. aureus; 50% plasma in MHB): 128 µg/mL (≈ 618 µM)
- MIC (S. aureus; 100% plasma in MHB): 128 µg/mL (≈ 618 µM)
